Source: patent US20110014196A1, “Drug Transfer into Living Cells” (priority 2007, published 2011)

Assays:
Format in all cases: biochemical
[1] = test system: fusion protein CLIP-FRB and the fusion protein SNAP-FKBP; test: Protein dimer formation with CLIP-FRB and SNAP-FKBP by SDS-PAGE; settings: overnight incubation at 4° C., coomassie staining
Protocol: The structural ability of compound (104) and (105) to trigger the formation of a protein dimer is confirmed by in vitro experiments using the fusion protein CLIP-FRB and the fusion protein SNAP-FKBP. 1 μL of a 591 μM solution of FKBP protein fused to a variant of AGT available from Covalys as SNAP26, 10 μL of a 52.9 μM solution of FRB protein fused to a variant of AGT available from Covalys as CLIP and 1 μL of a 62.5 μM solution of mixture of compounds (104) and (105) is added to 3 μL of a solution of 50 mM Tris-HCl pH 7.5; 100 mM NaCl; 0.1% Tween20; 1 mM DTT. Following overnight incubation at 4° C., 15 μL of a solution of 100 mM Tris-HCl pH 6.8; 2% SDS; 35% glycerol; 10 mM EDTA; 20 mM DTT is added. Then the mixture is boiled for 5 min at 95° C. After cooling to rt, 25 μL of this solution is loaded on a 4-20% linear gradient SDS-PAGE gel. After electrophoresis, the proteins are coomassie stained in gel to visualize protein dimer.

[2] = test system: FKBP protein fused to a variant of AGT available from Covalys as SNAP26 (SNAP-FKBP); test: Reactivity with FKBP-AGT fusion protein: protein trimer formation by SDS-PAGE and coomassie staining; settings: 4 h incubation at rt; SDS-PAGE, coomassie staining
FKBP protein fused to a variant of AGT available from Covalys as SNAP26 (SNAP-FKBP), sequence (P16455 1-182 C62A/K125A/A127T/R128A/G131K/G132T/M134L/R135S/C150S/N157G/S159E limits assumed): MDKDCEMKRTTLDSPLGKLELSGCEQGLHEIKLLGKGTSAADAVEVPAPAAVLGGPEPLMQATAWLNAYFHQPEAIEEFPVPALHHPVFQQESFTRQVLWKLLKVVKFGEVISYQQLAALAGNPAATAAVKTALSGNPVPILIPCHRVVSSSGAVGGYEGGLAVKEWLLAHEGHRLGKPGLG
Protocol: 1 μL of a 591 μM solution of FKBP protein fused to a variant of AGT available from Covalys as SNAP26 and 1 μL of a 100 μM solution of compound (89), (90), (91), (92) or (96) are added to 8 μL of a solution of 50 mM Tris-HCl pH 7.5; 100 mM NaCl; 0.1% Tween20; 1 mM DTT. Following a 4 h incubation at rt, 15 μL of a solution of 100 mM Tris-HCl pH 6.8; 2% SDS; 35% glycerol; 10 mM EDTA; 20 mM DTT is added. The mixture is boiled for 5 min at 95° C. After cooling to rt, 25 μL of this solution is loaded on a 4-20% linear gradient SDS-PAGE gel. After electrophoresis, the proteins are coomassie stained in gel to visualize protein trimer.

[3] = test system: HaloTag protein available from Promega Corporation; test: Protein trimer formation with HaloTag protein by SDS-PAGE; settings: 4 h incubation at rt, coomassie staining
Protocol: To a solution of N-tris[(2-carboxyethoxy)methyl]methyl nile red-oxyacetamide (86) (6 mg, 0.0083 mmol) and 18-chloro-3,6,9,12-tetraoxaoctadecan-1-amine (10 mg, 0.029 mmol, 3.5 eq) in DMF (1 mL) are successively added pyridine (5 μL, 0.058 mmol, 7 eq), HOBT (1 M in NMP, 8.3 μL, 0.0083 mmol, 1 eq) and EDC (6 mg, 0.029 mmol, 3.5 eq) at rt. The resulting mixture is stirred overnight. The solvent is evaporated under vacuum and compound (100) isolated by reversed phase HPLC on a C18 column using a linear gradient of water:acetonitrile (from 95:5 to 20:80 in 20 min, 0.08% TFA). The structural ability of compound (100) to trigger the formation of a protein trimer is confirmed by in vitro experiments using the fusion protein H2. 10 μL of a 70 μM solution of HaloTag protein available from Promega Corporation and 1.8 μL of a 230 μM solution of compound (100) is added to 3.2 μL of a solution of 50 mM Tris-HCl pH 7.5; 100 mM NaCl; 0.1% Tween20; 1 mM DTT. Following a 4 h incubation at rt, 15 μL of a solution of 100 mM Tris-HCl pH 6.8; 2% SDS; 35% glycerol; 10 mM EDTA; 20 mM DTT is added. Then the mixture is boiled for 5 min at 95° C. After cooling to rt, 25 μL of this solution is loaded on a 4-20% linear gradient SDS-PAGE gel. After electrophoresis, the proteins are coomassie stained in gel to visualize protein trimer.

[4] = test system: fusion protein CLIP-FRB; test: Protein trimer formation with CLIP-FRB by SDS-PAGE; settings: 4 h incubation at rt, coomassie staining
fusion protein CLIP-FRB, sequence (P16455 1-182 with the stated changes limits assumed): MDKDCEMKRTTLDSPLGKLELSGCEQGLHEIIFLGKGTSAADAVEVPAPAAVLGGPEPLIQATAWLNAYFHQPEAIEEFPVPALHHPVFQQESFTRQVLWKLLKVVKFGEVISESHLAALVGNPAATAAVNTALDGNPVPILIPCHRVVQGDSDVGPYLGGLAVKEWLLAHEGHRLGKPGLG
Protocol: To a solution of N-tris[(2-carboxyethoxy)methyl]methyl nile red-oxyacetamide (86) (10 mg, 0.014 mmol) and BC-PEG12-NH2 (98) (41 mg, 0.049 mmol, 3.5 eq) in DMF (1 mL) are successively added DIPEA (8.1 μL, 0.049 mmol, 3.5 eq), HOBT (1 M in NMP, 14 μL, 0.014 mmol, 1 eq) and EDC (10 mg, 0.049 mmol, 3.5 eq) at rt. The resulting mixture is stirred overnight. The solvent is evaporated under vacuum and compound (99) isolated by reversed phase HPLC on a C18 column using a linear gradient of water:acetonitrile (from 95:5 to 20:80 in 20 min, 0.08% TFA). The structural ability of compound (99) to trigger the formation of a protein trimer is confirmed by in vitro experiments using the fusion protein CLIP-FRB. 20 μL of a 52.9 μM solution of FRB protein fused to a variant of AGT available from Covalys under the trade name CLIP and 2 μL of a 100 μM solution of compound (99) is added to 3 μL of a solution of 50 mM Iris-HCl pH 7.5; 100 mM NaCl; 0.1% Tween20; 1 mM DTT. Following a 4 h incubation at rt, 15 μL of a solution of 100 mM Tris-HCl pH 6.8; 2% SDS; 35% glycerol; 10 mM EDTA; 20 mM DTT is added. Then the mixture is boiled for 5 min at 95° C. After cooling to rt, 25 μL of this solution is loaded on a 4-20% linear gradient SDS-PAGE gel. After electrophoresis, the proteins are coomassie stained in gel to visualize protein trimer.

Compound | structural ability to trigger the formation of a protein trimer [2] | also measured
CN(C)c1ccc2c(-c3ccc(C(=O)NC(CCC(=O)NCc4ccc(COc5nc(N)nc6[nH]cnc56)cc4)C(=O)NCc4ccc(COc5nccc(N)n5)cc4)cc3C(=O)[O-])c3ccc(N(C)C)cc3[o+]c2c1 (centres unmarked) [Compound 104, N5-{4-[(2-amino-9H-purin-6-yloxy)methyl]benzyl}-N1-{4-[(4-aminopyrimidin-2-yloxy)methyl]benzyl}-2-tetramethylrhodamine-5-carboxamido-pentanediamide] | – | structural ability to trigger the formation of a protein dimer [1]: confirmed
N-Tris-{[2-(BG-PEG12-NH-carbonyl)ethoxy]methyl}methyl nile red-oxyacetamide [Compound 91] | confirmed | –
CCN(CC)c1ccc2nc3c4cc(OCC(=O)NC(COCCC(=O)NCCOCCOCCOCCOCCCCCCCl)(COCCC(=O)NCCOCCOCCOCCOCCCCCCCl)COCCC(=O)NCCOCCOCCOCCOCCCCCCCl)ccc4c(=O)cc-3oc2c1 [Compound 100, N-Tris-{[2-(halo-PEG4-NH-carbonyl)ethoxyl]methyl}methyl nile red-oxyacetamide] | – | structural ability to trigger the formation of a protein trimer [3]: confirmed
N-Tris-{[2-(BC-PEG12-NH-carbonyl)ethoxyl]methyl}methyl nile red-oxyacetamide [Compound 99] | – | structural ability to trigger the formation of a protein trimer [4]: confirmed
N-Tris-{[2-(BG-PEG12-NH-carbonyl)ethoxy]methyl}methyl ATTO-495-carboxamide [Compound 90] | confirmed | –
N-Tris-{[2-(BG-PEG12-NH-carbonyl)ethoxy]methyl}methyl 7-(diethylamino)-coumarin-3-carboxamide [Compound 89] | confirmed | –
N-Tris-{[2-(BG-PEG12-NH-carbonyl)ethoxy]methyl}methyl 3-[2-(2-maleimidoethyl)disulfanyl]propanoylamide [Compound 96] | confirmed | –
N-Tris-{[2-(BG-PEG12-NH-carbonyl)ethoxy]methyl}methyl 5-maleimido-pentanecarboxamide [Compound 92] | confirmed | –
